16 compounds from patent US10961200B2, “Small molecule inhibitors of lactate dehydrogenase and methods of use thereof” (THE UNITED STATES OF AMERICA, AS REPRESENTED BY THE …, priority 2014, dated 2021) can be followed below.

Some results are limits rather than exact numbers.

The target of the first test is Human LDHA (Homo sapiens (Human), UniProt P00338). In words: human LDHA primary biochemical assay (resazurin/diaphorase coupled, fluorescence). The conditions noted are these: LDHA inhibitory activity, activity level based on IC50 (Table 7). The source says:
Test compounds were placed in a Greiner Bio-One (Monroe, N.C.) 1536-well black solid bottom assay plate. 200 millimolar (mM) Tris HCl, pH 7.4, 100 micromolar […] EDTA and 0.01% TWEEN-20™, final concentration, was used as the assay buffer. The LDHA reagent was 2 nanomolar (nM) Human LDHA (Meridian Life Science, Inc., Memphis, Tenn.), final concentration, in assay buffer.
With `C/C=C(\C)c1cc(-c2nn(-c3nc(C(=O)O)cs3)c(CC3CC3)c2Cc2ccc(S(N)(=O)=O)c(F)c2)ccc1F` [Compound 450], the IC50 was under 100 nM. The same measure, in the same setting: under `NS(=O)(=O)c1ccc(Cc2c(-c3cccc(OCc4ccccc4)c3)nn(-c3nc(C(=O)O)cs3)c2CC2CC2)cc1F` [Compound 340] stands under 100 nM. The same measure, in the same setting: under `Cc1ccc(-c2nn(-c3nc(C(=O)O)cs3)c(C3CC3)c2Cc2ccc(S(N)(=O)=O)cc2)cc1-c1cccc(N)c1` [Compound 500, 2-(3-(3′-amino-6-methyl-[1,1′-biphenyl]-3-yl)-5-cyclopropyl-4-(4-sulfamoylbenzyl)-1H-pyrazol-1-yl)thiazole-4-carboxylic acid] stands under 100 nM; under `CC(C)Oc1cccc(-c2nn(-c3nc(C(=O)O)cs3)cc2Cc2ccc(S(N)(=O)=O)cc2)c1` [Compound 459, 2-(3-(3-isopropoxyphenyl)-4-(4-sulfamoylbenzyl)-1H-pyrazol-1-yl)thiazole-4-carboxylic acid], under 100 nM. The same measure, in the same setting: the result for `NS(=O)(=O)c1ccc(Cc2cn(-c3nc(C(=O)O)cs3)nc2-c2cccc(OCC3CCOC3)c2)cc1` (stereo not shown) [Compound 461, 2-(4-(4-sulfamoylbenzyl)-3-(3-((tetrahydrofuran-3-yl)methoxy)phenyl)-1H-pyrazol-1-yl)thiazole-4-carboxylic acid] reads under 100 nM.

The test is the same for the next values; noted with them: LDHA inhibitory activity, assay of Example 1; activity level classes.
With `CCOC(=O)c1csc(-n2nc(-c3ccc(F)c(-c4cccc(OC)c4)c3)c(Cc3ccc(S(N)(=O)=O)c(F)c3)c2C2CC2)n1` [Compound 248], the IC50 was over 57000 nM.

As for `Nc1c(Cc2ccc(S(N)(=O)=O)cc2)c(-c2ccccc2)nn1C(=O)c1cccc2cc[nH]c12` [Compound 150, 4-((5-ammo-1-(1H-indole-7-carbonyl)-3-phenyl-1H-pyrazol-4-yl)methyl)benzenesulfonamide], the IC50 was over 57000 nM.

Consider `COc1cccc(-c2cc(-c3nn(-c4nc(C(=O)O)cs4)c(C4CC4)c3Cc3ccc([S+](N)(=O)[O-])cc3F)ccc2F)c1` [Compound 256], for which the concentration for half-maximal inhibition (IC50) is under 100 nM. In turn, `COc1cccc(-c2cc(-c3c(Cc4ccc([S+](N)(=O)[O-])cc4)c(CC4CC4)nn3-c3nc(C(=O)O)cs3)ccc2F)c1` [Compound 236] returned a half-maximal inhibitory concentration (IC50) of over 57000 nM.

On to `CS(=O)(=O)Nc1cc(-c2cc(O)n(-c3nc(C(=O)O)cs3)n2)ccc1F` [Compound 103, 2-(3-(4-fluoro-3-(methylsulfonamido)phenyl)-5-hydroxy-1H-pyrazol-1-yl)thiazole-4-carboxylic acid], for which the IC50 was over 57000 nM. `NS(=O)(=O)c1ccc(Cc2c(-c3cccc(-c4ccccc4)c3)nn(-c3nc(C(=O)O)cs3)c2C2(C(F)(F)F)CC2)cc1F` [Compound 302]: the IC50 lay in the range of 1000 to 57000 nM. In turn, `CCOC(=O)c1csc(-n2nc(C3CC3)c(Cc3ccc(S(N)(=O)=O)cc3)c2-c2cccc(-c3ccccc3)c2)n1` [Compound 180, ethyl 2-(5-([1,1′-biphenyl]-3-yl)-3-cyclopropyl-4-(4-sulfamoylbenzyl)-1H-pyrazol-1-yl)thiazole-4-carboxylate] returned an IC50 of over 57000 nM.

Still in this test, the particulars now being: read-out: Inhibitory activity IC50.
Take `N[S+](=O)([O-])c1ccc(Cc2c(CC3CC3)nn(-c3nc(C(=O)O)cs3)c2-c2cccc(-c3ccccc3)c2)cc1F` [Compound 291]: the concentration for half-maximal inhibition (IC50) is 1000 to 57000 nM. The same measure, in the same setting: the result for `NS(=O)(=O)c1ccc(Cc2cn(-c3nc(C(=O)O)cs3)c3ccncc23)cc1` [Compound 34, 2-(3-(4-sulfamoylbenzyl)-1H-pyrrolo[3,2-c]pyridin-1-yl)thiazole-4-carboxylic acid] reads 100 to 1000 nM; that for `NC(=O)c1csc(-n2nc(-c3cccc(-c4ccccc4)c3)c(Cc3ccc(S(N)(=O)=O)cc3)c2O)n1` [Compound 70, 2-(3-([1,1′-biphenyl]-3-yl)-5-hydroxy-4-(4-sulfamoylbenzyl)-1H-pyrazol-1-yl)thiazole-4-carboxamide], over 57000 nM.

In the case of `N#CCc1c(Cc2ccc(S(N)(=O)=O)cc2)c(-c2ccccc2)nn1-c1nc(C(=O)O)cs1` [Compound 59, 2-(5-(cyanomethyl)-3-phenyl-4-(4-sulfamoylbenzyl)-1H-pyrazol-1-yl)thiazole-4-carboxylic acid], the IC50 lay within 100 to 1000 nM.
